Here are results for 26 molecules from patent US4777167A, “Pharmaceutically useful substituted thiacycloalkeno [3,2-b]pyridines, compositions and method of use” (Ortho Pharmaceutical Corporation, priority 1987, dated 1988).

Molecules are shown by their SMILES. Values joined by “and” are separate entries in the source; they are usually repeats but may differ in a detail not shown here. Equal entries are not always repeated. Where two headings read alike, the source gives them in different places.

The subject of assay [1] is trachealis muscle. The experiment in a line: Inhibition of calcium dependent smooth muscle contraction (KCl-challenged trachea). It is filed as cell-based, dog. The conditions noted are these: Canis lupus familiaris; for inhibition at 2 µM: concentration 2.0 μM; for inhibition at 10 µM: concentration 10.0 μM; for inhibition at 0.1 µM: concentration 0.1 μM; for inhibition at 0.2 µM: concentration 0.2 μM; for inhibition at 0.5 µM: concentration 0.5 μM. The procedure:
The test for inhibition of calcium dependent smooth muscle contraction is determined according to the following procedure:
Trachea from dogs sacrificed by excess KCl injection are stored overnight at 4° C. in oxygenated Krebs-Henseleit buffer. Tracheal rings, one cartilage segment wide (5-10 mm), are cut starting from the bronchial end. After cutting the cartilage, the trachealis muscle tissue is suspended in oxygenated Krebs-Henseleit buffer at 37° C. in a 25 ml tissue bath. After a 60 minutes equilibration period, the tissues are challenged with 10 μM carbachol. After 5 minutes the tissues are rinsed and allowed to rest 50 minutes. The tissues are then challenged with 50 mM KCl and, after 30 minutes, the contractions are quantitated. The tissues are then rinsed and reequilibrated for 50 minutes. Test compounds are then added for 10 minutes, and the tissue is rechallenged with 50 mMKcl. After 30 minutes, the contraction is recorded and used to determine the % inhibition of control.
The percent inhibition of smooth muscle contraction is calculated from response data before and after drug treatment. [formula] A rating is assigned to the compound depending upon the percent inhibition obtained.

The target in assay [2] is T1, calcium channels (Oryctolagus cuniculus, UniProt P15381).
T1 construct: from tissue; host or cells: heart of female New Zealand white rabbits, membrane fraction (42,000×g pellet)
The experiment in a line: Inhibition of nitrendipine binding (3H-nitrendipine displacement, rabbit heart membranes). The conditions noted are these: 90 min, 4° C. On the set-up: species or system rabbit (New Zealand white). The method, then:
(1) Inhibition of nitrendipine binding to calcium channels.
The assay for inhibition of nitrendipine binding follows the following procedure:
Female, New Zealand white rabbits (1-2 kg) are sacrificed by cervical dislocation, and the heart is immediately removed, cleaned, and chopped into small pieces. The tissue is homogenized in 5× volume of 0.05M Hepes buffer, pH 7.4. The homogenate is centrifuged at 4000×g for 10 minutes; the supernatant is recentrifuged at 42,000×g for 90 minutes. The resulting membrane pellet is resuspended (0.7 ml/g weight) in 0.05M Hepes, pH 7.4 and stored at -70° C. until used. Each tube of the binding assay contains ^3 H- nitrendipine (0.05-0.50 nM), buffer, membranes (0.10 ml), and test compound in a total volume of 1.0 ml. After 90 minutes at 4° C., the bound nitrendipine is separated from the unbound by filtration on Whatman GF/C fibers. After rinsing, the filters are dried and counted in a liquid scintillation counter.
Non-specific binding of ^3 H-nitrendipine (that amount bound in the presence of excess unlabelled nitrendipine) is subtracted from the total bound to obtain specifically bound radiolabeled nitrendipine. The amount of specifically bound nitrendipine in the presence of a test compound is compared to that amount bound in the absence of a compound. A percent displacement (or inhibition) can then be obtained.

The subject of assay [3] is Aorta Muscle. The experiment in a line: Inhibition of aorta muscle contraction. It is filed as cell-based. As to conditions: Table II; concentration 0.1 μM.
Setting [4] is: Table II, read-out: Inhibition Trachea Muscle Contraction % Inhibition.
[5] abbreviates: Table I, read-out: Inhibition of Ca2+ dependent smooth muscle contraction % Inhibition.

T1 sequence (P15381 whole entry, other chains not shown): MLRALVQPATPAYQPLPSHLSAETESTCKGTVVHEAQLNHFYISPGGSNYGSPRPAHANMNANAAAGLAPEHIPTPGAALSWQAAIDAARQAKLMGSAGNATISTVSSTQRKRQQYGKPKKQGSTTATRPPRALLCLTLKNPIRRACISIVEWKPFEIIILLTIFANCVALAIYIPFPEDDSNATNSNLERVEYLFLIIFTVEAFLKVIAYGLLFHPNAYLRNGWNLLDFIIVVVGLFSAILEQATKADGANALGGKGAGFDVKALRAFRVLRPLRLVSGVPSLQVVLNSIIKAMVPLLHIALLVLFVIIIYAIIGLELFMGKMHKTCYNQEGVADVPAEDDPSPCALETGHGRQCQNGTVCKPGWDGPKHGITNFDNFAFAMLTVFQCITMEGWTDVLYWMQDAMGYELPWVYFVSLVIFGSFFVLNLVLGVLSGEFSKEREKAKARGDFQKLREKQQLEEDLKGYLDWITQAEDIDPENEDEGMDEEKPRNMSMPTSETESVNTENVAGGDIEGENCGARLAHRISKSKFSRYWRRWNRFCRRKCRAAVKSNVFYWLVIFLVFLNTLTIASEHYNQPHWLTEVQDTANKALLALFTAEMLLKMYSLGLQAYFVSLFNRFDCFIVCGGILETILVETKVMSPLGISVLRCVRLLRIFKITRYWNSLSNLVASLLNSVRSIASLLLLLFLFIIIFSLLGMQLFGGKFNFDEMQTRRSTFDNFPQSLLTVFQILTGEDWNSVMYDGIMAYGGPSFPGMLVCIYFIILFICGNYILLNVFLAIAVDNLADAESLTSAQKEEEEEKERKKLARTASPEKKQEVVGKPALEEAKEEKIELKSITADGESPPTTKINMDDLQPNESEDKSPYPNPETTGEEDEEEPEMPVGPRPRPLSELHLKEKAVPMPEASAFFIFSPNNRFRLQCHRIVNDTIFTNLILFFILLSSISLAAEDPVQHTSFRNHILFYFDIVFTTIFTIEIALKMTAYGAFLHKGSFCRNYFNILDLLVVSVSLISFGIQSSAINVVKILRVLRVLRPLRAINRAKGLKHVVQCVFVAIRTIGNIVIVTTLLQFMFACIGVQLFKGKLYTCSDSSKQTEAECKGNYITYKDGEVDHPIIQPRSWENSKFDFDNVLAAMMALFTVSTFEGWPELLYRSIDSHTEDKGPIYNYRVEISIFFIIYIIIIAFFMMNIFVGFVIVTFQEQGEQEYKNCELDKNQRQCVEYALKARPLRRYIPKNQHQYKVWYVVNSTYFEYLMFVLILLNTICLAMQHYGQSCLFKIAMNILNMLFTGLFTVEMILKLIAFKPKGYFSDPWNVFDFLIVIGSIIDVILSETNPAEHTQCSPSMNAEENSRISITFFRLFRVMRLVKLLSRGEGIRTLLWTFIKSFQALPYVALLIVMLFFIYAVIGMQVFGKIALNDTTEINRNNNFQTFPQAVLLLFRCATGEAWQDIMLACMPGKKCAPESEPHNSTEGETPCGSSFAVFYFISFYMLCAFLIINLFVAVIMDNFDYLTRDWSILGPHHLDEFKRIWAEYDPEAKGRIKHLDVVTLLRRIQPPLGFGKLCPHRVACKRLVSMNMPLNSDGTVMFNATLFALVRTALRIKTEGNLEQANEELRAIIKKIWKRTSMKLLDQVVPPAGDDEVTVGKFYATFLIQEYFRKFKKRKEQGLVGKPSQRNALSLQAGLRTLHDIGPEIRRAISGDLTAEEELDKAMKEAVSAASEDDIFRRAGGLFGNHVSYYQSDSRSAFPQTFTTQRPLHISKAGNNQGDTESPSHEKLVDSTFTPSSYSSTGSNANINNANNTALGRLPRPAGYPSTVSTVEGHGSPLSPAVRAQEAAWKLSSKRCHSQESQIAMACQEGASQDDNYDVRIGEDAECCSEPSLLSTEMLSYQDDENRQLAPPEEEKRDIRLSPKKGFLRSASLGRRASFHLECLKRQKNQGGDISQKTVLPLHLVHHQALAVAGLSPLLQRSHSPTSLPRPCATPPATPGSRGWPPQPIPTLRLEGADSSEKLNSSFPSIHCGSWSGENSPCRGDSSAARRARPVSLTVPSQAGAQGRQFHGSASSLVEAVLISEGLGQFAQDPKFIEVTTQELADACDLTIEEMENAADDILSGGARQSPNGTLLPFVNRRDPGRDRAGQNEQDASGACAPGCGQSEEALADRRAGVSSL
T1 sequence (P13806 27-960 partner limits assumed, other chains not shown): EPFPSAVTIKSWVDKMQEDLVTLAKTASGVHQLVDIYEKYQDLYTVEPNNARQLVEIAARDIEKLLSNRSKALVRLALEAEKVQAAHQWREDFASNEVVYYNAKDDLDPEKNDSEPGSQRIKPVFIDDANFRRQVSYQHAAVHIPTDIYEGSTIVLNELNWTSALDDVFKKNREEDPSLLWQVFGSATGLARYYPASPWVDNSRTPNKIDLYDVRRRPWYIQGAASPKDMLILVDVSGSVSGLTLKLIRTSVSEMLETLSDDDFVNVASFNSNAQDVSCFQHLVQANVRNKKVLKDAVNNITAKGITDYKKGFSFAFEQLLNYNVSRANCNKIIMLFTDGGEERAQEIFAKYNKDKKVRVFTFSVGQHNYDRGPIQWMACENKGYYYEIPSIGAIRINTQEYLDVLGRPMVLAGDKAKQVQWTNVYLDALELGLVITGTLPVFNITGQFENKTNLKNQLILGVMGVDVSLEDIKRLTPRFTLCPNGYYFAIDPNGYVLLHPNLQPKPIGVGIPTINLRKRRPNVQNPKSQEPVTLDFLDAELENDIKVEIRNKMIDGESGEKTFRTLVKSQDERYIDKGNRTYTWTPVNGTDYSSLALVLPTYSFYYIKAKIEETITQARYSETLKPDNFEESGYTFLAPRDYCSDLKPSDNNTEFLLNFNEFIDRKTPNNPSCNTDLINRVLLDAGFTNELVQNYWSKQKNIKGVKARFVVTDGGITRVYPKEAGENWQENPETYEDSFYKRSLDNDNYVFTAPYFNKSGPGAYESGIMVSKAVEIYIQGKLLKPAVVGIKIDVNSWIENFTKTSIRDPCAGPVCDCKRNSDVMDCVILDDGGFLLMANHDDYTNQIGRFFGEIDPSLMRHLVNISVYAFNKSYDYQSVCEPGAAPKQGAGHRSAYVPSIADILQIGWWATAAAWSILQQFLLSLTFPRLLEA
T1 sequence (P13806 961-1106 partner limits assumed, other chains not shown): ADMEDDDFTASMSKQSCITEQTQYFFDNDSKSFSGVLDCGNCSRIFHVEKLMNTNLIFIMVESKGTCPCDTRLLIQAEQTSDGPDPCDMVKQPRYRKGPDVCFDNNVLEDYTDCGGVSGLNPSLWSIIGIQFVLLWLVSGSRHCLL

In the case of `CC1=C(C(=O)OC2CCCSC2)C(c2cccc(Cl)c2Cl)C2=C(CCCCS2(=O)=O)N1` (centres unmarked) [4 2,3-Cl2C6 H3 drawing 14], in assay [1] (setting [4]), the inhibition (usually how much of the control response was suppressed) at 2 µM was determined as 54%.
Turning to `COC(=O)C1=C(C)NC2=C(C1c1cccc([N+](=O)[O-])c1)S(=O)(=O)CCC2` (centres unmarked) [3 CH3 3-NO2C6 H4, Methyl 3,4,5,8,-tetrahydro-6-methyl-8-(3-nitrophenyl)-1,1-dioxo-2H-thiopyrano-[3,2-b]pyridine-7-carboxylate], the IC50 – broadly, the concentration that gives 50% inhibition – in assay [2] (Table I) is 0.16 µM. Moreover, the inhibition at 10 µM in assay [1] (setting [5]) came to 57%.
On to `COC(=O)C1=C(C)NC2=C(C1c1cccc([N+](=O)[O-])c1)S(=O)(=O)CC2` (centres unmarked) [2 CH3 3-NO2C6 H4], for which the IC50 in assay [2] (Table I) turned out to be 0.7 µM. For the same molecule, the inhibition at 10 µM in assay [1] (setting [5]) turned out to be 76%.
In the case of `CC1=C(C(=O)OCCN(C)Cc2ccccc2)C(c2cccc([N+](=O)[O-])c2)C2=C(CCS2(=O)=O)N1` (centres unmarked) [2 CH2 CH2 NCH3 CH2 C6 H5 3-NO2C6 H4, N-Benzyl-N-methylaminoethyl 2,3,4,7-tetrahydro-5-methyl-7-(3-nitrophenyl)-1,1-dioxothieno[3,2-b]pyridine-6-carboxylate], the IC50 in assay [2] (Table I) was found to be 1 µM. Besides, in assay [1] (Table I, concentration 5.0 μM, read-out: Inhibition of Ca2+ dependent smooth muscle contraction % Inhibition), the inhibition at 5 µM worked out at 65%.
For `COC(=O)C1=C(C)NC2(O)CCS(=O)(=O)C2C1c1ccccc1[N+](=O)[O-]` (centres unmarked) [Methyl 2,3,3a,4,7,7a-hexahydro-3a-hydroxy-5-methyl-7-(2-nitrophenyl)-1,1-dioxo-thieno[3,2-b]pyridine-6-carboxylate], in assay [1] (setting [5]), the inhibition at 2 µM was 26%.
As for `COC(=O)C1=C(C)NC2=C(C1c1ccccc1[N+](=O)[O-])S(=O)(=O)CCC2` (centres unmarked) [3 CH3 2-NO2C6 H4], the IC50 in assay [2] (Table I) amounted to 0.89 µM. Further, the inhibition at 10 µM in assay [1] (setting [5]) stood at 84%.
In the case of `COC(=O)C1=C(C)NC2=C(C1c1ccccc1[N+](=O)[O-])S(=O)(=O)CC2` (centres unmarked) [2 CH3 2-NO2C6 H4, Methyl 2,3,4,7,-tetrahydro-5-methyl-7-(2-nitrophenyl)-1,1-dioxothieno[3,2-b]pyridine-6-carboxylate], the IC50 in assay [2] (Table I) was 1.35 µM. The inhibition at 2 µM in assay [1] (setting [5]) is 63%.
With `CCOC(=O)C1=C(C)NC2=C(C1c1cccc([N+](=O)[O-])c1)S(=O)(=O)CCC2` (centres unmarked) [3 CH2 CH3 3-NO2C6 H4, Ethyl 3,4,5,8-tetrahydro-6-methyl-8-(3-nitrophenyl)-1,1-dioxo-2H-thio-pyrano[3,2-b]pyridine-7-carboxylate], the IC50 in assay [2] (Table I) is 0.17 µM. Moreover, the inhibition at 10 µM in assay [1] (setting [5]) stood at 69%.
As to `CCOC(=O)C1=C(C)NC2=CCCCCS(=O)(=O)C2C1c1cccc([N+](=O)[O-])c1` (centres unmarked) [Ethyl 3,4,5,7,10,10a-hexahydro-8-methyl-10-(3-nitrophenyl)-1,1-dioxo-2H-thiacycloocteno[3,2-b]pyridine-9-carboxylate], the 50% inhibitory concentration (IC50) in assay [2] (Table I) stood at 0.27 µM. Moreover, in assay [1] (setting [5]), the inhibition at 2 µM was found to be 53%.
Consider `CC1=C(C(=O)OC2CCCSC2)C(c2c(F)c(F)c(F)c(F)c2F)C2=C(CCCCS2(=O)=O)N1` (centres unmarked) [4 C6 F5 drawing 13], for which the inhibition at 2 µM in assay [1] (setting [4]) came to 53%.
In the case of `CCOC(=O)C1=C(C)NC2=C(C1c1cccnc1SC)S(=O)(=O)CCCCC2` (centres unmarked) [drawing 8 CH2 CH3], the inhibition at 0.1 µM in assay [3] is 42%. Moreover, the inhibition at 0.3 µM in assay [1] (Table II, concentration 0.3 μM) was determined as 79%.
Turning to `CCOC(=O)C1=C(C)NC2=C(C1c1cccc([N+](=O)[O-])c1)S(=O)(=O)CCCCC2` (centres unmarked) [5 CH2 CH3 3-NO2C6 H4], the IC50 in assay [2] (Table I) came out at 0.0055 µM. In assay [1] (setting [5]), the inhibition at 0.1 µM turned out to be 71%.
On to `COC(=O)C1=C(C)NC2=C(C1c1cccc([N+](=O)[O-])c1)S(=O)(=O)CCCC2` (centres unmarked) [4 CH3 3-NO2C6 H4], for which, in assay [2] (Table I), the IC50 is 0.027 µM and 0.039 µM. The inhibition at 2 µM in assay [1] (setting [5]) came out at 94%.
`CC1=C(C(=O)OCCN(C)Cc2ccccc2)C(c2cccc([N+](=O)[O-])c2)C2=C(CCCCS2(=O)=O)N1` (centres unmarked) [4 CH2 CH2 NCH3 CH2 C6 H5 3-NO2C6 H4, N-Benzyl-N-methylaminoethyl 2,4,5,6,9-hexahydro-7-methyl-9-(3-nitrophenyl)-1,1-dioxothiacyclohepteno[3,2-b]pyridine-8-carboxylate]: in assay [2] (Table I), the IC50 is 0.13 µM. For the same molecule, the inhibition at 0.2 µM in assay [1] (setting [5]) was 68%.
As to `CC1=C(C(=O)OCCN(C)Cc2ccccc2)C(c2c(F)c(F)c(F)c(F)c2F)C2=C(CCCCS2(=O)=O)N1` (centres unmarked) [4 CH2 CH2 NCH3 CH2 C6 H5 C6 F5, N-Benzyl-N-methylaminoethyl 9-(2,3,4,5,6-pentafluorophenyl)-2,3,4,5,6,9-hexahydro-7-methyl-1,1-dioxothiacyclohepteno[3,2-b]pyridine-8-carboxylate], the IC50 in assay [2] (Table I) is 0.035 µM. For the same molecule, in assay [1] (setting [5]), the inhibition at 0.2 µM turned out to be 74%.
On to `CC1=C(C(=O)OCCN(C)Cc2ccccc2)C(c2cccc([N+](=O)[O-])c2)C2=C(CCCS2(=O)=O)N1` (centres unmarked) [3 CH2 CH2 NCH3 CH2 C6 H5 3-NO2C6 H4, N-Benzyl-N-methyl-2-aminoethyl 2,3,4,8-tetrahydro-6-methyl-8-(3-nitrophenyl)-1,1-dioxo-5H-thiopyrano[3,2-b]pyridine-7-carboxylate Hemioxalate], for which the IC50 in assay [2] (Table I) is 1.85 µM. The inhibition at 2 µM in assay [1] (setting [5]) was 46%.
In the case of `CC1=C(C(=O)OCCN(C)Cc2ccccc2)C(c2ccccc2OC(F)F)C2=C(CCCCS2(=O)=O)N1` (centres unmarked) [4 2-OCHF2C6 H4, N-Benzyl-N-methylaminoethyl 9-(2-cifluoromethoxyphenyl)-2,4,5,6,9-hexahydro-7-methyl-1,1-dioxothiacyclohepteno[3,2-b]pyridine-8-carboxylate], the concentration for half-maximal inhibition (IC50) in assay [2] (Table II) stood at 0.072 µM. Moreover, the inhibition at 0.1 µM in assay [1] (setting [4]) amounted to 54%.
`CC1=C(C(=O)OCc2ccccc2)C(c2ccccc2[N+](=O)[O-])C2=C(CCCS2(=O)=O)N1` (centres unmarked) [3 CH2 C6 H5 2-NO2C6 H4]: the IC50 in assay [2] (Table I) worked out at 3.4 µM. The inhibition at 10 µM in assay [1] (setting [5]) was found to be 69%.
Turning to `CCOC(=O)C1=C(C)NC2=C(C1c1c(F)c(F)c(F)c(F)c1F)S(=O)(=O)CC2` (centres unmarked) [2 CH2 CH3 C6 F5], the IC50 in assay [2] (Table I) was 0.56 µM. Moreover, in assay [1] (setting [5]), the inhibition at 2 µM is 48%.
For the molecule `COC(=O)C1=C(C)NC2=C(C1c1c(F)c(F)c(F)c(F)c1F)S(=O)(=O)CC2` (centres unmarked) [2 CH3 C6 F5], in assay [2] (Table I), the IC50 was found to be 0.15 µM. Further, the inhibition at 2 µM in assay [1] (setting [5]) came to 47%.
Take `COC(=O)C1=C(C)NC2=C(C1c1cccc(C#N)c1)S(=O)(=O)CC2` (centres unmarked) [2 CH3 3-CNC6 H4]: in assay [2] (Table I), the IC50 worked out at 2 µM.
As for `CCOC(=O)C1=C(C)NC2=C(C1c1cccc([N+](=O)[O-])c1)S(=O)(=O)CCCC2` (centres unmarked) [4 CH 2 CH3 3-NO2C6 H4, Ethyl 2,3,4,5,6,9-hexahydro-7-methyl-9-(3-nitrophenyl)-1,1-dioxothiacyclohepteno[3,2-b]pyridine-8-carboxylate], the IC50 in assay [2] (Table I) turned out to be 0.044 µM. In addition, the inhibition at 2 µM in assay [1] (setting [5]) is 96%.
As for `CCOC(=O)C1=C(C)NC2=C(C1c1ccccc1[N+](=O)[O-])S(=O)(=O)CCC2` (centres unmarked) [3 CH2 CH3 2-NO2C6 H4], the IC50 in assay [2] (Table I) worked out at 1.5 µM. Also, in assay [1] (setting [5]), the inhibition at 10 µM stood at 75%.
On to `COC(=O)C1=C(C)NC2=C(C1c1c(F)c(F)c(F)c(F)c1F)S(=O)(=O)CCC2` (centres unmarked) [3 CH3 C6 F5], for which the IC50 in assay [2] (Table I) amounted to 0.4 µM. Besides, the inhibition at 0.5 µM in assay [1] (setting [5]) was 46%.
The like results for `CCOC(=O)C1=C(C)NC2=C(C1c1c(F)c(F)c(F)c(F)c1F)S(=O)(=O)CCCC2` (centres unmarked) [4 CH2 CH3 C6 F5, Ethyl 9-(2,3,4,5,6-pentafluorophenyl)-2,3,4,5,6,9-hexahydro-7-methyl-1,1-dioxothiacyclohepteno[3,2-b]pyridine-8-carboxylate] were, in that order, 0.028 µM and 95%.
Consider `COC(=O)C1=C(C)NC2=C(C1c1cccc(Cl)c1)S(=O)(=O)CC2` (centres unmarked) [2 CH3 3-ClC6 H4], for which the IC50 in assay [2] (Table I) came to 0.93 µM.
